Assay results reported in patent US20030130210A1, “Method for treating a patient with neoplasia by treatment with an anthracycline antibiotic” (priority 1998, published 2003).

Assays:
HT-29 cells [1] = test: Cyclic nucleotide (cGMP, cAMP) levels in HT-29 cells by radioimmunoassay; assay type: cell-based, human; conditions: HT-29 cells treated for 30 minutes
Experimental: The amount of PDE activity can be determined by assaying for the amount of cyclic GMP in the extract of treated cells using a radioimmunoassay (RIA). In this procedure, a neoplastic cell line is incubated with a test compound. […]
It has been observed that a compound which is useful in the practice of this invention (i.e., one that selectively induces apoptosis in neoplastic cells, but not substantially in normal cells) follows a time course consistent with cGMP-specific PDE inhibition. […] The intracellular targets of these drug actions are being studied further, but current data support the concept that the initial rise in cGMP content and the subsequent fall in cAMP content precede apoptosis in neoplastic cells exposed to test compounds useful in this invention. To determine the cyclic AMP content in cell extracts, radioimmunoassay techniques similar to those described above for cGMP are used.

[2] = Side effects of exisulind on administration; assay type: in vivo; conditions: doses higher than the recommended therapeutic levels; reversible
Excerpt: This effect is reversible, and liver enzymes return to normal levels when the administered dose of exisulind returns to the traditionally recommended level or when treatment is discontinued. The most serious side effects of anthracycline antibiotics, on the other hand, is their myocardial toxicity and their myelosuppressive activity.

HT-29 cells [3] = test: Tumor cell growth inhibition in HT-29 cells; assay type: cell-based, human; conditions: 120 μM, viable cell count after trypan blue staining
HT-29 cells [4] = test: Apoptosis and necrosis by morphology (acridine orange / ethidium bromide) in HT-29 cells; assay type: cell-based, human; conditions: 120 μM
Experimental: Treatment of cells with test compounds involves either pre- or post-confluent cultures and treatment for two to seven days at various concentrations of the compound in question. Apoptotic cells are measured by combining both the attached and “floating” compartments of the cultures. The protocol for treating tumor cell cultures with sulindac and related compounds to obtain a significant amount of apoptosis has been described in the literature. (See, Piazza, G. A., et al., Cancer Research, 55:3110-16, 1995, which is incorporated herein by reference). The novel features include collecting both floating and attached cells, identification of the optimal treatment times and dose range for observing apoptosis, and identification of optimal cell culture conditions. […]
Reference compounds and test compounds were analyzed for their cGMP-specific PDE inhibitory activity in accordance with the protocols for the assay, supra. […] Apoptotic and necrotic cell death was determined as previously described (Duke and Cohen, In: Current Protocols in Immunology, 3.17.1-3.17.16, New York, John Wiley and Sons, 1992). […]
The apoptosis inducing activity for a series of phosphodiesterase inhibitors was determined. […] Apoptosis and necrosis were determined morphologically after acridine orange and ethidium bromide labeling in accordance with the assay described, supra.

HT-29 cells [5] = test: Apoptosis by DNA fragmentation assay in HT-29 cells; assay type: cell-based, human; conditions: apoptosis inducing activity

Compound	effect on levels of cAMP (HT-29 cells [1])	Fold induction at 100 μM (HT-29 cells [5])	further results
COc1ccc(C2CNC(=O)C2)cc1OC1CCCC1 (stereo not shown) [Rolipram]	increased cAMP levels	–	–
CC1=C(CC(=O)O)c2cc(F)ccc2/C1=C\c1ccc(S(C)(=O)=O)cc1 [Exisulind, (Z)-5-fluoro-2-methyl-1-[[4-(methylsulfonyl)phenyl]methylene]indene-3-yl acetic acid]	–	–	side effects at doses higher than recommended [2]: elevated levels of liver enzymes
CSc1ccc(/C=C2/C(C)=C(CC(=O)O)c3cc(F)ccc32)cc1 [Sulindac sulfide]	unaffected	–	growth inhibition, time course (HT-29 cells [3]): capable of inhibiting tumor cell growth; apoptosis, time course (HT-29 cells [4]): increase in apoptosis
CCN(CC)CCSC12CC(=O)OC1(C)/C(=C/c1ccc(S(C)(=O)=O)cc1)c1ccc(F)cc12 (racemic) [A, rac-threo-(E)-1-(N,N′-diethylaminoethanethio)-1-(butan-1′,4′-olido)-[3′,4′:1,2]-6-fluoro-2-methyl-3-(p-methylsulfonylbenzylidene)-indan]	–	<2.0 fold	–
CCCCCC[C@@H]([C@@H](C)O)n1cnc2c(N)ncnc21 (racemic) [EHNA]	–	<2.0 fold	–
